# Like-named read-outs stand apart in the source and are kept apart here.
# Biological target: T1, full-length SARM1 (FL-SARM1) (Homo sapiens, UniProt Q6SZW1)
# T1 sequence (Q6SZW1 28-724): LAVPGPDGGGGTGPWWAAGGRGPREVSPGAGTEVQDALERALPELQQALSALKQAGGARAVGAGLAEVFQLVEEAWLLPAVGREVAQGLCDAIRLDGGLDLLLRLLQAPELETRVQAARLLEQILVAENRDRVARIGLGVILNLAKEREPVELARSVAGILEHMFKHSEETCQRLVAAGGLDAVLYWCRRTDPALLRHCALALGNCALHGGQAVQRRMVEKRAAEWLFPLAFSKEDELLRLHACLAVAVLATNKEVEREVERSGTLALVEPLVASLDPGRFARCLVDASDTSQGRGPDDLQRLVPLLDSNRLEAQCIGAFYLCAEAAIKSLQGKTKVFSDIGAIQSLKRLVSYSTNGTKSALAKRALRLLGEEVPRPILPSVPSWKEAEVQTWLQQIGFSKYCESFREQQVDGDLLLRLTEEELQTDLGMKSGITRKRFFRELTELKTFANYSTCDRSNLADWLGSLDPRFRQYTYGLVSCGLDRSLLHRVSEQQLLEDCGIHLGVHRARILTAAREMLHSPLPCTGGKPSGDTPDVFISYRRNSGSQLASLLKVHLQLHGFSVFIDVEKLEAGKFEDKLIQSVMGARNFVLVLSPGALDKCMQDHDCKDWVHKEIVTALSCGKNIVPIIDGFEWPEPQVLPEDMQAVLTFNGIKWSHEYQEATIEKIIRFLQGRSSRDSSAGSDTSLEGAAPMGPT
# Assay: FL-SARM1 cellular lysate assay (NAD/NADH-Glo detection of remaining NAD+, NMN-activated)
# [1] = Activity (IC50 class), 11 point curve
# [2] = Activity (μM) (IC50), 11 point curve
# [3] = read-out: Activity (IC50 class), 11 point curve
compound,measurement,setting,value
"Cc1ccc(NC(=O)N2CCc3ccccc3C2)cc1-c1ccccn1 [Example 101, N-(4-methyl-3-pyridin-2-ylphenyl)-3,4-dihydro-1H-isoquinoline-2-carboxamide]",IC50,[1],1 to 10 µM
same,IC50,[2],10 µM
"Cc1ccc(NC(=O)C(C)(C)C2CCC2)cc1-c1cccnn1 [Example 296, 2-cyclobutyl-2-methyl-N-(4-methyl-3-pyridazin-3-ylphenyl)propanamide]",IC50,[1],1 to 10 µM
same,IC50,[2],4.3 µM
"Cc1ccc(NC(=O)[C@@H]2C[C@@H]2c2ccccn2)cc1-c1cccnn1 [Example 291, (1R,2S)-N-(4-methyl-3-pyridazin-3-ylphenyl)-2-pyridin-2-ylcyclopropane-1-carboxamide]",IC50,[1],> 10 µM
same,IC50,[2],16 µM
"Cc1ccc(NC(=O)[C@@H]2CC2(F)F)cc1-c1ccc(C2CC2)cn1 [Example 149, (1S)-N-[3-(5-cyclopropylpyridin-2-yl)-4-methylphenyl]-2,2-difluorocyclopropane-1-carboxamide]",IC50,[1],> 10 µM
same,IC50,[2],17 µM
Cc1ccc(NC(=O)N2C3CCCC2C3)cc1-c1ncc(F)c(C)n1 [Example 326],IC50,[1],1 to 10 µM
same,IC50,[2],1.4 µM
"CO[C@@H]1CCCN(C(=O)Nc2ccc(C(F)(F)F)c(-c3ncc(F)cn3)c2)CC1 [Example 306, (R)-N-(3-(5-fluoropyrimidin-2-yl)-4-(trifluoromethyl)phenyl)-4-methoxyazepane-1-carboxamide]",IC50,[1],1 to 10 µM
same,IC50,[2],9.6 µM
Cc1ccc(NC(=O)[C@H]2CC[C@@H](C)CN2c2ncccn2)cc1-c1ncccn1 (racemic) [Example 327],IC50,[2],0.5 µM
same,IC50,[3],0.0001 to 1 µM
"Cc1ccc(NC(=O)N2CCCC3C2C3C(F)(F)F)cc1-c1ccccn1 (mixture of isomers) [Example 98, N-(4-methyl-3-pyridin-2-ylphenyl)-7-(trifluoromethyl)-2-azabicyclo[4.1.0]heptane-2-carboxamide]",IC50,[1],> 10 µM
same,IC50,[2],20 µM
"Cc1cc(F)c(NC(=O)N2C3C[C@@H](C)C[C@H]2C3)cc1-c1ncc(F)cn1 [Example 254, cis-N-[2-fluoro-5-(5-fluoropyrimidin-2-yl)-4-methylphenyl]-3-methyl-6-azabicyclo[3.1.1]heptane-6-carboxamide]",IC50,[2],0.02 µM
same,IC50,[3],0.0001 to 1 µM
"Cc1ccc(NC(=O)[C@H]2C[C@H]3C[C@H]3N2c2cncnn2)cc1-c1ncc(F)cn1 [Example 173, (1R,3R,5R)—N-(3-(5-fluoropyrimidin-2-yl)-4-methylphenyl)-2-(1,2,4-triazin-6-yl)-2-azabicyclo[3.1.0]hexane-3-carboxamide]",IC50,[1],1 to 10 µM
same,IC50,[2],4.2 µM
"Cc1ccc(NC(=O)N2CC3CC2Cc2ccccc23)cc1-c1ccccn1 (stereo not drawn) [Example 21, N-(4-methyl-3-(pyridin-2-yl)phenyl)-4,5-dihydro-1H-1,4-methanobenzo[d]azepine-3(2H)-carboxamide]",IC50,[1],1 to 10 µM
same,IC50,[2],2.5 µM
"Cc1ccc(NC(=O)N2C3CCC2[C@@H](C)C3)cc1-c1ncc(F)cn1 (single isomer, unassigned) [Example 195, cis-N-(3-(5-fluoropyrimidin-2-yl)-4-methylphenyl)-2-methyl-7-azabicyclo[2.2.1]heptane-7-carboxamide]",IC50,[2],0.3 µM
same,IC50,[3],0.0001 to 1 µM
"Cc1ccc(NC(=O)[C@H]2C[C@@H]2c2ccccc2)cc1-c1ncc(F)cn1 (racemic) [Example 257, trans-N-(3-(5-fluoropyrimidin-2-yl)-4-methylphenyl)-2-phenylcyclopropane-1-carboxamide]",IC50,[1],> 10 µM
same,IC50,[2],30 µM
"Cc1ccc(NC(=O)N2C3CCCC2C3)cc1-c1cnccn1 [Example 53, N-(4-methyl-3-(pyrazin-2-yl)phenyl)-6-azabicyclo[3.1.1]heptane-6-carboxamide]",IC50,[2],0.8 µM
same,IC50,[3],0.0001 to 1 µM
"Cc1ccc(NC(=O)N2C3CC2CN(CC(F)(F)F)C3)cc1-c1ccccn1 [Example 4, N-(4-methyl-3-(pyridin-2-yl)phenyl)-3-(2,2,2-trifluoroethyl)-3,6-diazabicyclo[3.1.1]heptane-6-carboxamide]",IC50,[2],0.4 µM
same,IC50,[3],0.0001 to 1 µM
